Measured values published in ChEMBL document CHEMBL1201862, “PubChem BioAssay data set” (2004).
Where “and” joins values, the source holds several entries; their conditions need not be identical. Equal values may be shown once.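 Interpolation was linear, between the two tested concentrations surrounding the appropriate level; five concentrations were tested over 48 hours in 96-well plates. GI50 is the concentration that inhibits growth by half.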 Calls of active or inactive are those of the source. Rule as the data show it: active = GI50 up to about 1.1 µM and inactive = higher.

Experiments:
Test in all cases: growth of human tumour cells (NCI), 48 h
786-0 = tested on: 786-0
A498 = tested on: A498
A549 = tested on: A549
ACHN = tested on: ACHN
BT-549 = tested on: BT-549
CAKI-1 = tested on: CAKI-1
CCRF-CEM = tested on: CCRF-CEM
EKVX = tested on: EKVX
HCC 2998 = tested on: HCC 2998
HCT-116 = tested on: HCT-116
HCT-15 = tested on: HCT-15
HL-60 = tested on: HL-60
HOP-62 = tested on: HOP-62
HOP-92 = tested on: HOP-92
HT-29 = tested on: HT-29
Hs-578T = tested on: Hs-578T
IGROV-1 = tested on: IGROV-1
KM12 = tested on: KM12
LOX IMVI = tested on: LOX IMVI
M14 = tested on: M14
MCF7 = tested on: MCF7
MDA-MB-231 = tested on: MDA-MB-231
MDA-MB-435 = tested on: MDA-MB-435
MDA-N = tested on: MDA-N
MOLT-4 = tested on: MOLT-4
Malme-3M = tested on: Malme-3M
NCI-H226 = tested on: NCI-H226
NCI-H23 = tested on: NCI-H23
NCI-H460 = tested on: NCI-H460
NCI-H522 = tested on: NCI-H522
NCI/ADR-RES = tested on: NCI/ADR-RES
OVCAR-3 = tested on: OVCAR-3
OVCAR-4 = tested on: OVCAR-4
OVCAR-5 = tested on: OVCAR-5
OVCAR-8 = tested on: OVCAR-8
PC-3 = tested on: PC-3
RPMI-8226 = tested on: RPMI-8226
RXF 393 = tested on: RXF 393
SF-268 = tested on: SF-268
SF-295 = tested on: SF-295
SF-539 = tested on: SF-539
SK-MEL-28 = tested on: SK-MEL-28
SK-MEL-2 = tested on: SK-MEL-2
SK-MEL-5 = tested on: SK-MEL-5
SK-OV-3 = tested on: SK-OV-3
SN12C = tested on: SN12C
SNB-75 = tested on: SNB-75
SW-620 = tested on: SW-620
T47D = tested on: T47D
TK-10 = tested on: TK-10
U-251 = tested on: U-251
UACC-257 = tested on: UACC-257
UACC-62 = tested on: UACC-62
UO-31 = tested on: UO-31
COLO 205 = tested on: COLO 205
DU-145 = tested on: DU-145
K562 = tested on: K562
SNB-19 = tested on: SNB-19
SR = tested on: SR

## N#Cc1ccccc1NC(=O)/C(=N\NC(=O)c1ccncc1)C(c1cnc2ccc([N+](=O)[O-])cc2n1)[N+](=O)[O-] (stereo not given)
786-0
  GI50: > 100 µM (inactive)
A498
  GI50: > 100 µM (inactive)
A549
  GI50: 97.9 µM (inactive)
ACHN
  GI50: 28 µM (inactive)
BT-549
  GI50: > 100 µM (inactive)
CAKI-1
  GI50: > 100 µM (inactive)
CCRF-CEM
  GI50: 56.4 µM (inactive)
EKVX
  GI50: 53.1 µM (inactive)
HCC 2998
  GI50: > 100 µM (inactive)
HCT-116
  GI50: > 100 µM (inactive)
HCT-15
  GI50: 78.3 µM
HL-60
  GI50: > 100 µM (inactive)
HOP-62
  GI50: > 100 µM (inactive)
HOP-92
  GI50: 86.9 µM (inactive)
HT-29
  GI50: > 100 µM (inactive)
Hs-578T
  GI50: > 100 µM (inactive)
IGROV-1
  GI50: 95.9 µM (inactive)
KM12
  GI50: 39.9 µM (inactive)
LOX IMVI
  GI50: 84.5 µM (inactive)
M14
  GI50: 67.6 µM (inactive)
MCF7
  GI50: 80.2 µM (inactive)
MDA-MB-231
  GI50: > 100 µM (inactive)
MDA-MB-435
  GI50: 74.8 µM (inactive)
MDA-N
  GI50: > 100 µM (inactive)
MOLT-4
  GI50: 80 µM (inactive)
Malme-3M
  GI50: > 100 µM (inactive)
NCI-H226
  GI50: > 100 µM (inactive)
NCI-H23
  GI50: > 100 µM (inactive)
NCI-H460
  GI50: 64.6 µM (inactive)
NCI-H522
  GI50: 33 µM (inactive)
NCI/ADR-RES
  GI50: > 100 µM (inactive)
OVCAR-3
  GI50: > 100 µM (inactive)
OVCAR-4
  GI50: > 100 µM (inactive)
OVCAR-5
  GI50: > 100 µM (inactive)
OVCAR-8
  GI50: > 100 µM (inactive)
PC-3
  GI50: > 100 µM (inactive)
RPMI-8226
  GI50: 49 µM (inactive)
RXF 393
  GI50: > 100 µM (inactive)
SF-268
  GI50: > 100 µM (inactive)
SF-295
  GI50: > 100 µM (inactive)
SF-539
  GI50: > 100 µM (inactive)
SK-MEL-28
  GI50: > 100 µM (inactive)
SK-MEL-2
  GI50: > 100 µM (inactive)
SK-MEL-5
  GI50: 63.7 µM (inactive)
SK-OV-3
  GI50: > 100 µM (inactive)
SN12C
  GI50: > 100 µM (inactive)
SNB-75
  GI50: > 100 µM (inactive)
SW-620
  GI50: > 100 µM (inactive)
T47D
  GI50: > 100 µM (inactive)
TK-10
  GI50: > 100 µM (inactive)
U-251
  GI50: > 100 µM (inactive)
UACC-257
  GI50: > 100 µM (inactive)
UACC-62
  GI50: > 100 µM (inactive)
UO-31
  GI50: 32.1 µM (inactive)

## O=[N+]([O-])c1ccccc1CSc1nc(O)c2nc[nH]c2n1
786-0
  GI50: > 100 µM (inactive)
A498
  GI50: > 100 µM (inactive)
A549
  GI50: > 100 µM (inactive)
ACHN
  GI50: > 100 µM (inactive)
BT-549
  GI50: > 100 µM (inactive)
CAKI-1
  GI50: 90.4 µM (inactive)
COLO 205
  GI50: > 100 µM (inactive)
DU-145
  GI50: > 100 µM (inactive)
EKVX
  GI50: 51.8 µM (inactive)
HCT-116
  GI50: > 100 µM (inactive)
HCT-15
  GI50: > 100 µM
HL-60
  GI50: 78.2 µM (inactive)
HOP-62
  GI50: > 100 µM (inactive)
HOP-92
  GI50: > 100 µM (inactive)
HT-29
  GI50: 72.6 µM (inactive)
Hs-578T
  GI50: 52.4 µM (inactive)
IGROV-1
  GI50: > 100 µM (inactive)
K562
  GI50: > 100 µM (inactive)
KM12
  GI50: > 100 µM (inactive)
LOX IMVI
  GI50: > 100 µM (inactive)
M14
  GI50: 61.9 µM (inactive)
MCF7
  GI50: > 100 µM (inactive) and > 99.3 µM (inactive)
MDA-MB-435
  GI50: > 100 µM (inactive) and 55 µM (inactive)
MDA-N
  GI50: > 100 µM (inactive)
MOLT-4
  GI50: > 100 µM (inactive)
Malme-3M
  GI50: > 100 µM (inactive)
NCI-H23
  GI50: > 100 µM (inactive)
NCI-H460
  GI50: > 100 µM (inactive)
NCI-H522
  GI50: > 100 µM (inactive) and 58.7 µM (inactive)
NCI/ADR-RES
  GI50: > 100 µM (inactive)
OVCAR-3
  GI50: > 100 µM (inactive)
OVCAR-5
  GI50: > 100 µM (inactive) and 92 µM (inactive)
OVCAR-8
  GI50: > 100 µM (inactive)
PC-3
  GI50: 79.8 µM (inactive)
RPMI-8226
  GI50: > 100 µM (inactive) and 89.3 µM (inactive)
RXF 393
  GI50: > 100 µM (inactive)
SF-268
  GI50: > 100 µM (inactive)
SF-295
  GI50: > 100 µM (inactive) and 99.8 µM (inactive)
SF-539
  GI50: > 100 µM (inactive)
SK-MEL-28
  GI50: > 100 µM (inactive)
SK-MEL-2
  GI50: > 100 µM (inactive)
SK-MEL-5
  GI50: > 100 µM (inactive)
SK-OV-3
  GI50: 63.8 µM (inactive)
SN12C
  GI50: > 100 µM (inactive) and 66.4 µM (inactive)
SNB-19
  GI50: 59.8 µM (inactive)
SR
  GI50: > 100 µM (inactive)
SW-620
  GI50: > 100 µM (inactive)
T47D
  GI50: > 100 µM (inactive) and 75.7 µM (inactive)
TK-10
  GI50: > 100 µM (inactive) and 79.8 µM (inactive)
U-251
  GI50: > 100 µM (inactive) and 96.4 µM (inactive)
UACC-257
  GI50: 81.3 µM (inactive)
UACC-62
  GI50: > 100 µM (inactive) and 88.1 µM (inactive)

## OC1COC2CC(Nc3ccccn3)OC12 (stereo not given)
786-0
  GI50: > 100 µM (inactive)
A549
  GI50: > 100 µM (inactive)
ACHN
  GI50: > 100 µM (inactive)
BT-549
  GI50: > 100 µM (inactive)
CAKI-1
  GI50: > 100 µM (inactive)
CCRF-CEM
  GI50: > 100 µM (inactive)
COLO 205
  GI50: > 100 µM (inactive)
EKVX
  GI50: > 100 µM (inactive)
HCC 2998
  GI50: > 100 µM (inactive)
HCT-116
  GI50: > 100 µM (inactive)
HCT-15
  GI50: > 100 µM
HOP-62
  GI50: > 100 µM (inactive)
HT-29
  GI50: > 100 µM (inactive)
Hs-578T
  GI50: > 100 µM (inactive)
IGROV-1
  GI50: > 100 µM (inactive)
K562
  GI50: > 100 µM (inactive)
KM12
  GI50: > 100 µM (inactive)
LOX IMVI
  GI50: > 100 µM (inactive)
M14
  GI50: > 100 µM (inactive)
MDA-MB-231
  GI50: > 100 µM (inactive)
MDA-MB-435
  GI50: > 100 µM (inactive)
MDA-N
  GI50: > 100 µM (inactive)
MOLT-4
  GI50: > 100 µM (inactive)
Malme-3M
  GI50: > 100 µM (inactive)
NCI-H226
  GI50: > 100 µM (inactive)
NCI-H23
  GI50: > 100 µM (inactive)
NCI-H460
  GI50: > 100 µM (inactive)
NCI-H522
  GI50: > 100 µM (inactive)
NCI/ADR-RES
  GI50: 56.9 µM (inactive)
OVCAR-3
  GI50: > 100 µM (inactive)
OVCAR-4
  GI50: > 100 µM (inactive)
OVCAR-5
  GI50: > 100 µM (inactive)
OVCAR-8
  GI50: > 100 µM (inactive)
PC-3
  GI50: > 100 µM (inactive)
RPMI-8226
  GI50: > 100 µM (inactive)
RXF 393
  GI50: > 100 µM (inactive)
SF-268
  GI50: > 100 µM (inactive)
SF-295
  GI50: > 100 µM (inactive)
SF-539
  GI50: > 100 µM (inactive)
SK-MEL-28
  GI50: > 100 µM (inactive)
SK-MEL-2
  GI50: > 100 µM (inactive)
SK-MEL-5
  GI50: > 100 µM (inactive)
SK-OV-3
  GI50: > 100 µM (inactive)
SN12C
  GI50: > 100 µM (inactive)
SNB-19
  GI50: > 100 µM (inactive)
SNB-75
  GI50: > 100 µM (inactive)
SR
  GI50: > 100 µM (inactive)
SW-620
  GI50: > 100 µM (inactive)
T47D
  GI50: > 100 µM (inactive)
TK-10
  GI50: > 100 µM (inactive)
U-251
  GI50: > 100 µM (inactive)
UACC-257
  GI50: > 100 µM (inactive)
UACC-62
  GI50: > 100 µM (inactive)
UO-31
  GI50: > 100 µM (inactive)
